Experimental data published in publication PMC11480511 (Scientific Reports, 2024).
Values after ≈ are worked out from the molar mass of the structure shown. Like-named read-outs stand apart in the source and are kept apart here.

Key:
[1] = test system: MOLT-4; assay: NCI single-dose growth inhibition screen; type: cell-based; conditions: Homo sapiens; Leukemia MOLT-4; single dose 10^−5 M
[2] = test system: RPMI-8226; assay: NCI single-dose growth inhibition screen; type: cell-based; conditions: Homo sapiens; Leukemia RPMI-8226; single dose 10^−5 M
[3] = test system: SR; assay: NCI single-dose growth inhibition screen; type: cell-based; conditions: Homo sapiens; Leukemia SR; single dose 10^−5 M
[4] = test system: HOP-62; assay: NCI single-dose growth inhibition screen; type: cell-based; conditions: Homo sapiens; Non-Small Cell Lung Cancer HOP-62; single dose 10^−5 M
[5] = test system: HOP-92; assay: NCI single-dose growth inhibition screen; type: cell-based; conditions: Homo sapiens; Non-Small Cell Lung Cancer HOP-92; single dose 10^−5 M
[6] = test system: NCI-H460; assay: NCI single-dose growth inhibition screen; type: cell-based; conditions: Homo sapiens; Non-Small Cell Lung Cancer NCI-H460; single dose 10^−5 M
[7] = test system: NCI-H522; assay: NCI single-dose growth inhibition screen; type: cell-based; conditions: Homo sapiens; Non-Small Cell Lung Cancer NCI-H522; single dose 10^−5 M
[8] = test system: HCT-116; assay: NCI single-dose growth inhibition screen; type: cell-based; conditions: Homo sapiens; Colon Cancer HCT-116; single dose 10^−5 M
[9] = test system: SF-268; assay: NCI single-dose growth inhibition screen; type: cell-based; conditions: Homo sapiens; CNS Cancer SF-268; single dose 10^−5 M
[10] = test system: SF-539; assay: NCI single-dose growth inhibition screen; type: cell-based; conditions: Homo sapiens; CNS Cancer SF-539; single dose 10^−5 M
[11] = test system: SNB-19; assay: NCI single-dose growth inhibition screen; type: cell-based; conditions: Homo sapiens; CNS Cancer SNB-19; single dose 10^−5 M
[12] = test system: SNB-75; assay: NCI single-dose growth inhibition screen; type: cell-based, human; conditions: Homo sapiens, SNB-75, CNS Cancer SNB-75; single dose 10^−5 M
[13] = test system: MALME-3 M; assay: NCI single-dose growth inhibition screen; type: cell-based; conditions: Homo sapiens; Melanoma MALME-3 M; single dose 10^−5 M
[14] = test system: M14; assay: NCI single-dose growth inhibition screen; type: cell-based; conditions: Homo sapiens; Melanoma M14; single dose 10^−5 M
Outline: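 Single dose of 10^−5 M tested per NCI protocols across the 60-cell-line human tumour panel. Values reported as percent growth inhibition.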

[15] = test system: MDA-MB-435; assay: NCI single-dose growth inhibition screen; type: cell-based; conditions: Homo sapiens; Melanoma MDA-MB-435; single dose 10^−5 M
[16] = test system: SK-MEL-2; assay: NCI single-dose growth inhibition screen; type: cell-based; conditions: Homo sapiens; Melanoma SK-MEL-2; single dose 10^−5 M
[17] = test system: SK-MEL-28; assay: NCI single-dose growth inhibition screen; type: cell-based; conditions: Homo sapiens; Melanoma SK-MEL-28; single dose 10^−5 M
[18] = test system: UACC-257; assay: NCI single-dose growth inhibition screen; type: cell-based; conditions: Homo sapiens; Melanoma UACC-257; single dose 10^−5 M
[19] = test system: UACC-62; assay: NCI single-dose growth inhibition screen; type: cell-based; conditions: Homo sapiens; Melanoma UACC-62; single dose 10^−5 M
[20] = test system: IGROV1; assay: NCI single-dose growth inhibition screen; type: cell-based; conditions: Homo sapiens, IGROV-1; Ovarian Cancer IGROV1; single dose 10^−5 M
[21] = test system: OVCAR-4; assay: NCI single-dose growth inhibition screen; type: cell-based; conditions: Homo sapiens; Ovarian Cancer OVCAR-4; single dose 10^−5 M
[22] = test system: A498; assay: NCI single-dose growth inhibition screen; type: cell-based, human; conditions: single dose 10^−5 M; for inhibition at 10 µM: Homo sapiens, A498, Renal Cancer A498
[23] = test system: CAKI-1; assay: NCI single-dose growth inhibition screen; type: cell-based; conditions: Homo sapiens; Renal Cancer CAKI-1; single dose 10^−5 M
[24] = test system: TK-10; assay: NCI single-dose growth inhibition screen; type: cell-based; conditions: Homo sapiens; Renal Cancer TK-10; single dose 10^−5 M
[25] = test system: UO-31; assay: NCI single-dose growth inhibition screen; type: cell-based, human; conditions: single dose 10^−5 M; for inhibition at 10 µM: Homo sapiens, UO-31, Renal Cancer UO-31
[26] = test system: HS 578T; assay: NCI single-dose growth inhibition screen; type: cell-based; conditions: Homo sapiens; Breast Cancer HS 578T; single dose 10^−5 M
[27] = test system: BT-549; assay: NCI single-dose growth inhibition screen; type: cell-based; conditions: Homo sapiens; Breast Cancer BT-549; single dose 10^−5 M
[28] = test system: T-47D; assay: NCI single-dose growth inhibition screen; type: cell-based; conditions: Homo sapiens, T47D; Breast Cancer T-47D; single dose 10^−5 M
[29] = test system: PC-3; assay: NCI single-dose growth inhibition screen; type: cell-based; conditions: Homo sapiens; Prostate Cancer PC-3; single dose 10^−5 M
[30] = test system: DU-145; assay: NCI single-dose growth inhibition screen; type: cell-based; conditions: Homo sapiens; Prostate Cancer DU-145; single dose 10^−5 M
[31] = test system: S. aureus ATCC 6538; assay: Antibacterial screening, agar cup diffusion method; type: cell-based; conditions: Staphylococcus aureus, ATCC6538; Gram + ve strain; read-out: Minimum inhibitory concentrations (MIC, µM) S. aureus ATCC 6538
[32] = test system: E. coli ATCC 25,922; assay: Antibacterial screening, agar cup diffusion method; type: cell-based; conditions: read-out: Minimum inhibitory concentrations (MIC, µM) E. coli ATCC 25,922
[33] = test system: A498 renal cancer cell line; assay: cells; conditions: Homo sapiens; for viability at 0.4 µM / viability at 1.6 µM / viability at 25 µM / viability at 100 µM: A498; for IC50: A498, read-out: In vitro cytotoxicity (IC50) A498 cell line (µM ± SEM)
[34] = Escherichia coli, ATCC25, Gram –ve strain

Compound: O=C(O)c1cn(C2CC2)c2cc(N3CCN(C(=O)CCCN4C(=O)SC(=Cc5ccccc5)C4=O)CC3)c(F)cc2c1=O [3a, 7-[4-[4-[5-benzylidene-2,4-dioxo-thiazolidin-3-yl]butanoyl]piperazin-1-yl]-1-cyclopropyl-6-fluoro-4-oxo-quinoline-3-carboxylic acid]
- inhibition at 10 µM [1]: 12.6%
- inhibition at 10 µM [2]: 11.4%
- inhibition at 10 µM [3]: 29.9%
- inhibition at 10 µM [4]: < 0%
- inhibition at 10 µM [5]: < 0%
- inhibition at 10 µM [6]: 3.7%
- inhibition at 10 µM [7]: 27.4%
- inhibition at 10 µM [8]: 19.3%
- inhibition at 10 µM [9]: 12.4%
- inhibition at 10 µM [10]: 8.9%
- inhibition at 10 µM [11]: 9.8%
- inhibition at 10 µM [12]: 29.1%
- inhibition at 10 µM [13]: 30.4%
- inhibition at 10 µM [14]: 8.2%
- inhibition at 10 µM [15]: 7.8%
- inhibition at 10 µM [16]: 10.1%
- inhibition at 10 µM [17]: 9%
- inhibition at 10 µM [18]: 21.1%
- inhibition at 10 µM [19]: 28.6%
- inhibition at 10 µM [20]: 8.5%
- inhibition at 10 µM [21]: 2.5%
- inhibition at 10 µM [22]: 41.4%
- inhibition at 10 µM [23]: 10.9%
- inhibition at 10 µM [24]: < 0%
- inhibition at 10 µM [25]: 53.2%
- Growth Inhibition (%) ([25]; Renal Cancer UO-31): 36.0%
- inhibition at 10 µM [26]: 8.8%
- inhibition at 10 µM [27]: 7.3%
- inhibition at 10 µM [28]: 8.1%
- inhibition at 10 µM [29]: < 0%
- inhibition at 10 µM [30]: < 0%
- MIC [31]: > 20 µM
- MIC [32, 34]: 0.2 µM (≈ 0.121 µg/mL)
- melting point: 238 °C
- viability at 0.4 µM [33]: 103%
- viability at 1.6 µM [33]: 92.7%
- viability at 25 µM [33]: 69.3%
- viability at 100 µM [33]: 56.1%
- IC50 [33]: > 150 µM

Compound: COc1ccc(/C=C2\SC(=O)N(CCCC(=O)N3CCN(c4cc5c(cc4F)c(=O)c(C(=O)O)cn5C4CC4)CC3)C2=O)cc1OC [3f]
- inhibition at 10 µM [1]: 7.2%
- inhibition at 10 µM [2]: < 0%
- inhibition at 10 µM [3]: 19.5%
- inhibition at 10 µM [4]: < 0%
- inhibition at 10 µM [5]: 0.8%
- inhibition at 10 µM [6]: < 0%
- inhibition at 10 µM [7]: 7.8%
- inhibition at 10 µM [8]: < 0%
- inhibition at 10 µM [9]: < 0%
- inhibition at 10 µM [10]: 4.4%
- inhibition at 10 µM [11]: 0.9%
- inhibition at 10 µM [12]: 4.9%
- inhibition at 10 µM [13]: 5.9%
- inhibition at 10 µM [14]: < 0%
- inhibition at 10 µM [15]: < 0%
- inhibition at 10 µM [16]: 2.8%
- inhibition at 10 µM [17]: < 0%
- inhibition at 10 µM [18]: 12.3%
- inhibition at 10 µM [19]: 1.4%
- inhibition at 10 µM [20]: < 0%
- inhibition at 10 µM [21]: < 0%
- inhibition at 10 µM [22]: 15.5%
- inhibition at 10 µM [23]: 1.7%
- inhibition at 10 µM [24]: 8.7%
- inhibition at 10 µM [25]: 14.5%
- inhibition at 10 µM [26]: 1.2%
- inhibition at 10 µM [27]: 3.4%
- inhibition at 10 µM [28]: 0.9%
- inhibition at 10 µM [29]: < 0%
- inhibition at 10 µM [30]: < 0%
- MIC [31]: > 20 µM
- MIC [32, 34]: 1.94 to 2.6 µM (≈ 1.29 to 1.73 µg/mL)
- MIC ([32]; Gram –ve strain): 2.23 µM (≈ 1.48 µg/mL)
- melting point: 241 °C

Compound: O=C(O)c1cn(C2CC2)c2cc(N3CCN(C(=O)CCCN4C(=O)SC(=Cc5cccc6ccccc56)C4=O)CC3)c(F)cc2c1=O [3j, 1-cyclopropyl-6-fluoro-7-[4-[4-[5-(1-naphthylmethylene)-2,4-dioxo-thiazolidin-3-yl]butanoyl]piperazin-1-yl]-4-oxo-quinoline-3-carboxylic acid]
- inhibition at 10 µM [1]: 17.5%
- inhibition at 10 µM [2]: 6.1%
- inhibition at 10 µM [3]: 14.1%
- inhibition at 10 µM [4]: 15.1%
- inhibition at 10 µM [5]: 13.3%
- inhibition at 10 µM [6]: 3.9%
- inhibition at 10 µM [7]: 18.5%
- inhibition at 10 µM [8]: 10.6%
- inhibition at 10 µM [9]: 29.1%
- inhibition at 10 µM [10]: 9.9%
- inhibition at 10 µM [11]: 20.1%
- inhibition at 10 µM [12]: 28.4%
- inhibition at 10 µM [13]: 13.1%
- inhibition at 10 µM [14]: 16.7%
- inhibition at 10 µM [15]: 12.8%
- inhibition at 10 µM [16]: < 0%
- inhibition at 10 µM [17]: 4.5%
- inhibition at 10 µM [18]: 19.1%
- inhibition at 10 µM [19]: 20.4%
- inhibition at 10 µM [20]: 25.9%
- inhibition at 10 µM [21]: 16.4%
- inhibition at 10 µM [22]: 50.9%
- Growth Inhibition (%) ([22]; Renal Cancer A498): 50.9%
- inhibition at 10 µM [23]: 18%
- inhibition at 10 µM [24]: < 0%
- inhibition at 10 µM [25]: 48.1%
- inhibition at 10 µM [26]: 30.2%
- inhibition at 10 µM [27]: 20.5%
- inhibition at 10 µM [28]: 7.5%
- inhibition at 10 µM [29]: < 0%
- inhibition at 10 µM [30]: 21.9%
- MIC [31]: > 20 µM
- MIC [32, 34]: 1.94 to 2.6 µM (≈ 1.27 to 1.7 µg/mL)
- MIC ([32]; Gram –ve strain): 2.60 µM (≈ 1.7 µg/mL)
- melting point: 219 °C
- viability at 0.4 µM [33]: 84.7%
- viability at 1.6 µM [33]: 71.9%
- viability at 25 µM [33]: 51.4%
- viability at 100 µM [33]: 42.5%
- IC50 [33]: 33.9 ± 1.91 µM
